In ChEMBL document CHEMBL3639306, “1H-imidazo[4,5-c]quinolines” (2014):

Each compound was assayed against T1, 3-phosphoinositide-dependent protein kinase 1 (Homo sapiens, UniProt O15530) (assay: Kinase Assay: Recombinant human PDK1 enzyme (aa 52-556) linked at its N-terminal end to His6 is isolated from baculovirus-infected insect cells. Purified enzyme may be obtained for example from the University of Dundee, Scotland. The following components are combined in a well of a 96-well round-based dish (Greiner bio-one, No. 650101): 1. 15 uL of compound to be tested in varying concentrations (e.g. starting at 10 uM, and diluted in steps of 1:5) in APT buffer (50 mM Tris/Cl pH7.5; 0.05% beta -mercaptoethanol; 10 mM Mg-acetate; 0.0166% Tween 20; 3.33% DMSO) 2. 15 uL His6-PDK1 (aa 52-556) 3.33 ng/well) and PDKtide (KTFCGTPEYLAPEVRRE […]), synthesised by Pepceuticals Limited, Nottingham, United Kingdom; 25 uM final concentration); His6-PDK1 and PDKtide are together diluted accordingly in assay buffer (50 mM tris pH 7.5, 0.05% beta -mercaptoethanol, 10 mM Mg-acetate); PDKtide is present in this mixture as an 83.3 uM solution.).
T1 sequence (O15530 whole entry): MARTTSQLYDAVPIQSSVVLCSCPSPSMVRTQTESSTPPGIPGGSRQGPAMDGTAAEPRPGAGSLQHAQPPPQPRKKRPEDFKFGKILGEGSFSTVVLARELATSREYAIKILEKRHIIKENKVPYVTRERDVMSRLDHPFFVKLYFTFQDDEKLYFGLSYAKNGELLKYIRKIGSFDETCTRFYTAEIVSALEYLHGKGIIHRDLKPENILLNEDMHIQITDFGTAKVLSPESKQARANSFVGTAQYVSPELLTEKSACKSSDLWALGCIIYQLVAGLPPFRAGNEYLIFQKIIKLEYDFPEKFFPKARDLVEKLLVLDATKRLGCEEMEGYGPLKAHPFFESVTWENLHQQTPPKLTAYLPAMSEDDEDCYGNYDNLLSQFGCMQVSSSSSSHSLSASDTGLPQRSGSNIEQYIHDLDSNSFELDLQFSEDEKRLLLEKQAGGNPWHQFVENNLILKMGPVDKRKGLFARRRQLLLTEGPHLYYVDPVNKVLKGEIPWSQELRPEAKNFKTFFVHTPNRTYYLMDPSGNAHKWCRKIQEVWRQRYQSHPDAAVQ

IC50 [nM]	SMILES
111	Cc1nc2cnc3ccc(C#CCNC(=O)c4cc(Cl)nn(Cc5ccc(F)c(F)c5)c4=O)cc3c2n1[C@H]1CCCN(C)C1
14	Cn1c(CCO)nc2cnc3ccc(C#CCNC(=O)c4cncn(Cc5ccc(F)c(F)c5)c4=O)cc3c21

SMILES	IC50 [nM]
O=C(NCC#Cc1ccc2ncc3nc[nH]c3c2c1)c1cccn(Cc2ccc(F)c(F)c2)c1=O	4
